pIC50: −log10 of the molar value.
Target: T1, human M1 receptor (Homo sapiens, UniProt P11229)
T1 sequence (P11229 1-460): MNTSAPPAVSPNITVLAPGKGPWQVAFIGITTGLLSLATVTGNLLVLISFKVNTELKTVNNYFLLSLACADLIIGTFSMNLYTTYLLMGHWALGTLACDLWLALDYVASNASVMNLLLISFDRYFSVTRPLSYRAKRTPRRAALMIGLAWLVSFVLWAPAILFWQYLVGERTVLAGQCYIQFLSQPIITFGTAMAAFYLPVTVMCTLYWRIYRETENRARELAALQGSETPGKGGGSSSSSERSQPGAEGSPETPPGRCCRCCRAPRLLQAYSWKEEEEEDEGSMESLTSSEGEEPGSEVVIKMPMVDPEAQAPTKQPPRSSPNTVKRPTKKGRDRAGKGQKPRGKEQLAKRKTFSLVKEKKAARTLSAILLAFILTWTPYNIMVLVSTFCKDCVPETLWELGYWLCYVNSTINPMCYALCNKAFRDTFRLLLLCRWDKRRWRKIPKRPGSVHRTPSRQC
Assay: In vitro functional assay of muscarinic acetylcholine receptor activity (aequorin calcium flux, reversal of EC80 acetylcholine response)
Assay type: cell-based
Details: CHO-K1 cells stably expressing human M1 receptor with aequorin; acetylcholine at EC80; calcium flux (luminescence); read-out: M1 IC50
Procedure, shortened: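 CHO-K1 cells expressing human M1 and aequorin, loaded with 5 μM coelenterazine for 4 h, preincubated with compound 30 min at room temperature, then challenged with EC80 acetylcholine.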

SMILES	pIC50
N#Cc1ccc(N2C3CCC2CN(C(=O)COCC2(c4ccccc4)CC2)C3)nc1 [Example 187, 6-(3-(2-((1-phenylcyclopropyl)methoxy)acetyl)-3,8-diazabicyclo[3.2.1]octan-8-yl)nicotinonitrile]	6.00 to 7.00
N#Cc1ccc(N2C3CCC2CN(C(=O)COCC2(c4ccc(F)cc4)CC2)C3)nc1 [Example 188, 6-(3-(2-((1-(4-fluorophenyl)cyclopropyl)methoxy)acetyl)-3,8-diazabicyclo[3.2.1]octan-8-yl)nicotinonitrile]	5.00 to 6.00
N#Cc1ccc(N2C3CCC2CN(C(=O)COCC2(c4ccncc4)CC2)C3)nc1 [Example 189, 6-(3-(2-((1-(pyridin-4-yl)cyclopropyl)methoxy)acetyl)-3,8-diazabicyclo[3.2.1]octan-8-yl)nicotinonitrile]	5.00 to 6.00
N#Cc1ccc(N2C3CCC2CN(C(=O)COC2(c4ccc(F)cc4)CC2)C3)nc1 [Example 205, 6-(3-(2-(1-(4-fluorophenyl)cyclopropoxy)acetyl)-3,8-diazabicyclo[3.2.1]octan-8-yl)nicotinonitrile]	6.00 to 7.00
N#Cc1ccc(N2C3CCC2CN(C(=O)COC2(c4cccc(F)c4)CC2)C3)nc1 [Example 206, 6-(3-(2-(1-(3-fluorophenyl)cyclopropoxy)acetyl)-3,8-diazabicyclo[3.2.1]octan-8-yl)nicotinonitrile]	6.00 to 7.00
N#Cc1ccc(N2C3CCC2CN(C(=O)COC2(c4ccccc4F)CC2)C3)nc1 [Example 207, 6-(3-(2-(1-(2-fluorophenyl)cyclopropoxy)acetyl)-3,8-diazabicyclo[3.2.1]octan-8-yl)nicotinonitrile]	7.00 to 8.00
N#Cc1ccc(N2C3CCC2CN(C(=O)COC2(c4ccc(Br)cc4)CC2)C3)nc1 [Example 208, 6-(3-(2-(1-(4-bromophenyl)cyclopropoxy)acetyl)-3,8-diazabicyclo[3.2.1]octan-8-yl)nicotinonitrile]	6.00 to 7.00
N#Cc1ccc(N2C3CCC2CN(C(=O)COC2(c4cccc(Br)c4)CC2)C3)nc1 [Example 209, 6-(3-(2-(1-(3-bromophenyl)cyclopropoxy)acetyl)-3,8-diazabicyclo[3.2.1]octan-8-yl)nicotinonitrile]	6.00 to 7.00
N#Cc1ccc(N2C3CCC2CN(C(=O)COC2(c4cccc(F)c4F)CC2)C3)nc1 [Example 211, 6-(3-(2-(1-(2,3-difluorophenyl)cyclopropoxy)acetyl)-3,8-diazabicyclo[3.2.1]octan-8-yl)nicotinonitrile]	7.00 to 8.00
N#Cc1ccc(N2C3CCC2CN(C(=O)COC2(c4cc(F)ccc4F)CC2)C3)nc1 [Example 213, 6-(3-(2-(1-(2,5-difluorophenyl)cyclopropoxy)acetyl)-3,8-diazabicyclo[3.2.1]octan-8-yl)nicotinonitrile]	7.00 to 8.00
N#Cc1ccc(N2C3CCC2CN(C(=O)COC2(c4ccc(Cl)c(Cl)c4)CC2)C3)nc1 [Example 214, 6-(3-(2-(1-(3,4-dichlorophenyl)cyclopropoxy)acetyl)-3,8-diazabicyclo[3.2.1]octan-8-yl)nicotinonitrile]	7.00 to 8.00
N#Cc1ccc(N2C3CCC2CN(C(=O)COC2(c4ccc(F)c(Br)c4)CC2)C3)nc1 [Example 215, 6-(3-(2-(1-(3-bromo-4-fluorophenyl)cyclopropoxy)acetyl)-3,8-diazabicyclo[3.2.1]octan-8-yl)nicotinonitrile]	7.00 to 8.00
N#Cc1ccc(N2C3CCC2CN(C(=O)COC2(c4cc(F)cc(Br)c4)CC2)C3)nc1 [Example 217, 6-(3-(2-(1-(3-bromo-5-fluorophenyl)cyclopropoxy)acetyl)-3,8-diazabicyclo[3.2.1]octan-8-yl)nicotinonitrile]	7.00 to 8.00
N#Cc1ccc(N2C3CCC2CN(C(=O)COC2(c4cccc(Br)c4F)CC2)C3)nc1 [Example 219, 6-(3-(2-(1-(3-bromo-2-fluorophenyl)cyclopropoxy)acetyl)-3,8-diazabicyclo[3.2.1]octan-8-yl)nicotinonitrile]	7.00 to 8.00
N#Cc1ccc(N2C3CCC2CN(C(=O)COC2(c4cc(F)ccc4Br)CC2)C3)nc1 [Example 220, 6-(3-(2-(1-(2-bromo-5-fluorophenyl)cyclopropoxy)acetyl)-3,8-diazabicyclo[3.2.1]-8-yl)nicotinonitrile]	> 8.00
N#Cc1ccc(N2C3CCC2CN(C(=O)COC2(c4ccc(F)cc4Br)CC2)C3)nc1 [Example 221, 6-(3-(2-(1-(2-bromo-4-fluorophenyl)cyclopropoxy)acetyl)-3,8-diazabicyclo[3.2.1]octan-8-yl)nicotinonitrile]	7.00 to 8.00
COc1ccc(C2(OCC(=O)N3CC4CCC(C3)N4c3ccc(C#N)cn3)CC2)cc1F [Example 222, 6-(3-(2-(1-(3-fluoro-4-methoxyphenyl)cyclopropoxy)acetyl)-3,8-diazabicyclo[3.2.1]octan-8-yl)nicotinonitrile]	5.00 to 6.00

SMILES	pIC50
COc1ccc(C2(OCC(=O)N3CC4CCC(C3)N4c3ccc(C#N)cn3)CC2)c(F)c1 [Example 223, 6-(3-(2-(1-(2-fluoro-4-methoxyphenyl)cyclopropoxy)acetyl)-3,8-diazabicyclo[3.2.1]octan-8-yl)nicotinonitrile]	< 6.00
COc1cc(C2(OCC(=O)N3CC4CCC(C3)N4c3ccc(C#N)cn3)CC2)ccc1F [Example 224, 6-(3-(2-(1-(4-fluoro-3-methoxyphenyl)cyclopropoxy)acetyl)-3,8-diazabicyclo[3.2.1]octan-8-yl)nicotinonitrile]	7.00 to 8.00
COc1ccc(C2(OCC(=O)N3CC4CCC(C3)N4c3ccc(C#N)cn3)CC2)cc1OC [Example 225, 6-(3-(2-(1-(3,4-dimethoxyphenyl)cyclopropoxy)acetyl)-3,8-diazabicyclo[3.2.1]octan-8-yl)nicotinonitrile]	6.00 to 7.00
COc1ccc(Br)c(C2(OCC(=O)N3CC4CCC(C3)N4c3ccc(C#N)cn3)CC2)c1 [Example 226, 6-(3-(2-(1-(2-bromo-5-methoxyphenyl)cyclopropoxy)acetyl)-3,8-diazabicyclo[3.2.1]octan-8-yl)nicotinonitrile]	> 8.00
N#Cc1ccc(N2C3CCC2CN(C(=O)COC2(c4ccncc4)CC2)C3)nc1 [Example 227, 6-(3-(2-(1-(pyridin-4-yl)cyclopropoxy)acetyl)-3,8-diazabicyclo[3.2.1]octan-8-yl)nicotinonitrile]	6.00 to 7.00
N#Cc1ccc(N2C3CCC2CN(C(=O)COC2(c4ccncc4F)CC2)C3)nc1 [Example 228, 6-(3-(2-(1-(3-fluoropyridin-4-yl)cyclopropoxy)acetyl)-3,8-diazabicyclo[3.2.1]octan-8-yl)nicotinonitrile]	7.00 to 8.00
N#Cc1ccc(N2C3CCC2CN(C(=O)COC2(c4cncc(F)c4)CC2)C3)nc1 [Example 229, 6-(3-(2-(1-(5-fluoropyridin-3-yl)cyclopropoxy)acetyl)-3,8-diazabicyclo[3.2.1]octan-8-yl)nicotinonitrile]	6.00 to 7.00
COc1cncc(C2(OCC(=O)N3CC4CCC(C3)N4c3ccc(C#N)cn3)CC2)c1 [Example 230, 6-(3-(2-(1-(5-methoxypyridin-3-yl)cyclopropoxy)acetyl)-3,8-diazabicyclo[3.2.1]octan-8-yl)nicotinonitrile]	> 8.00
N#Cc1ccc(N2C3CCC2CN(C(=O)COC2(c4cccc5nccnc45)CC2)C3)nc1 [Example 231, 6-(3-(2-(1-(quinoxalin-5-yl)cyclopropoxy)acetyl)-3,8-diazabicyclo[3.2.1]octan-8-yl)nicotinonitrile]	7.00 to 8.00
N#Cc1ccc(N2C3CCC2CN(C(=O)COCC2(c4cccc5ncnn45)CC2)C3)nc1 [Example 232, 6-(3-(2-((1-([1,2,4]triazolo[1,5-a]pyridin-5-yl)cyclopropyl)methoxy)acetyl)-3,8-diazabicyclo[3.2.1]octan-8-yl)nicotinonitrile]	> 8.00
COc1cncc(C2(OCC(=O)N3CC4CCC(C3)N4c3ccc(C#N)cn3)CCC2)c1 [Example 233, 6-(3-(2-(1-(5-methoxypyridin-3-yl)cyclobutoxy)acetyl)-3,8-diazabicyclo[3.2.1]octan-8-yl)nicotinonitrile]	> 8.00
N#Cc1ccc(N2C3CCC2CN(C(=O)COC2(c4ccc(F)cc4)CCC2)C3)nc1 [Example 234, 6-(3-(2-(1-(4-fluorophenyl)cyclobutoxy)acetyl)-3,8-diazabicyclo[3.2.1]octan-8-yl)nicotinonitrile]	7.00 to 8.00
N#Cc1ccc(N2C3CCC2CN(C(=O)COC2(c4cccc(F)c4)CCC2)C3)nc1 [Example 235, 6-(3-(2-(1-(3-fluorophenyl)cyclobutoxy)acetyl)-3,8-diazabicyclo[3.2.1]octan-8-yl)nicotinonitrile]	7.00 to 8.00
N#Cc1ccc(N2C3CCC2CN(C(=O)COC2(c4ccccc4F)CCC2)C3)nc1 [Example 236, 6-(3-(2-(1-(2-fluorophenyl)cyclobutoxy)acetyl)-3,8-diazabicyclo[3.2.1]octan-8-yl)nicotinonitrile]	6.00 to 7.00
COc1cccc(C2(OCC(=O)N3CC4CCC(C3)N4c3ccc(C#N)cn3)CCC2)c1 [Example 237, 6-(3-(2-(1-(3-methoxyphenyl)cyclobutoxy)acetyl)-3,8-diazabicyclo[3.2.1]octan-8-yl)nicotinonitrile]	> 8.00
N#Cc1ccc(N2C3CCC2CN(C(=O)COC2(c4cccc(OC(F)(F)F)c4)CCC2)C3)nc1 [Example 238, 6-(3-(2-(1-(3-(trifluoromethoxy)phenyl)cyclobutoxy)acetyl)-3,8-diazabicyclo[3.2.1]octan-8-yl)nicotinonitrile]	6.00 to 7.00

From US12565501B2, “Muscarinic acetylcholine M1 receptor antagonists” (Contineum Therapeutics, Inc., priority 2019, dated 2026)
